Conditions: 283.15 K, Liquid, Vibrating tube method

CCCCCC(=O)OCC(COC(=O)CCCCC)(COC(=O)CCCCC)COC(=O)CCCCC [pentaerythritol tetrahexanoate]
Conditions | mass density [kg/m3]
22895 kPa | 1017
22911 kPa | 1016.9
22928 kPa | 1017
22946 kPa | 1017
22963 kPa | 1017
22982 kPa | 1016.9
22997 kPa | 1017.1
23012 kPa | 1016.9
23030 kPa | 1017.2
23045 kPa | 1016.9
23060 kPa | 1017
23075 kPa | 1017
23093 kPa | 1017
23108 kPa | 1017.1
23124 kPa | 1017.1
23142 kPa | 1017.1
23157 kPa | 1017
23175 kPa | 1017
23191 kPa | 1017.1
23206 kPa | 1017.1
23221 kPa | 1017.2
23240 kPa | 1017
23255 kPa | 1017.2
23274 kPa | 1017.3
23290 kPa | 1017.1
23305 kPa | 1017
23323 kPa | 1017.2
23339 kPa | 1017.2
23354 kPa | 1017.2
23370 kPa | 1017.3
23389 kPa | 1017
23405 kPa | 1017.1
23422 kPa | 1017.2
23437 kPa | 1017.2
23456 kPa | 1017.3
23472 kPa | 1017.2
23488 kPa | 1017.3
23507 kPa | 1017.3
23523 kPa | 1017.3
23539 kPa | 1017.3
23555 kPa | 1017.3
23574 kPa | 1017.4
23590 kPa | 1017.3
23607 kPa | 1017.3
23627 kPa | 1017.4
23640 kPa | 1017.5
23659 kPa | 1017.4
23675 kPa | 1017.3
23691 kPa | 1017.3
23711 kPa | 1017.4
23726 kPa | 1017.3
23746 kPa | 1017.4
23762 kPa | 1017.4
23778 kPa | 1017.3
23794 kPa | 1017.3
23813 kPa | 1017.5
23830 kPa | 1017.5
23849 kPa | 1017.4
23866 kPa | 1017.5
23883 kPa | 1017.5
23902 kPa | 1017.5
23919 kPa | 1017.4
23935 kPa | 1017.5
23951 kPa | 1017.5
23971 kPa | 1017.5
23988 kPa | 1017.5
24004 kPa | 1017.5
24024 kPa | 1017.5
24041 kPa | 1017.6
24061 kPa | 1017.6
24078 kPa | 1017.6
24095 kPa | 1017.6
24111 kPa | 1017.6
24131 kPa | 1017.6
24148 kPa | 1017.7
24185 kPa | 1017.6
24202 kPa | 1017.5
24222 kPa | 1017.8
24239 kPa | 1017.6
24272 kPa | 1017.8
24327 kPa | 1017.7
24364 kPa | 1017.7
24382 kPa | 1017.7
24399 kPa | 1017.7
24419 kPa | 1017.6
24436 kPa | 1017.7
24457 kPa | 1017.8
24474 kPa | 1017.8
24492 kPa | 1017.9
24509 kPa | 1017.7
24530 kPa | 1017.9
24548 kPa | 1017.9
24565 kPa | 1017.9
24586 kPa | 1017.7
24603 kPa | 1017.7
24620 kPa | 1017.8
24641 kPa | 1018
24659 kPa | 1017.8
24676 kPa | 1017.9
24697 kPa | 1017.9
24715 kPa | 1017.9
24733 kPa | 1017.8
24754 kPa | 1017.8
24772 kPa | 1018
24789 kPa | 1018
24810 kPa | 1017.9
24828 kPa | 1017.9
24846 kPa | 1017.9
24867 kPa | 1017.9
24884 kPa | 1018
24903 kPa | 1017.8
24924 kPa | 1018
24942 kPa | 1018
24960 kPa | 1018.1
24981 kPa | 1018
25000 kPa | 1018
25018 kPa | 1018
25037 kPa | 1018.1
25059 kPa | 1018.2
25077 kPa | 1018
25095 kPa | 1018.1
25117 kPa | 1018.2
25135 kPa | 1018.2
25154 kPa | 1018.1
25175 kPa | 1018.1
25194 kPa | 1018.1
25212 kPa | 1018.1
25234 kPa | 1018.2
25253 kPa | 1018.2
25272 kPa | 1018.1
25290 kPa | 1018.1
25309 kPa | 1018.2
25331 kPa | 1018.2
25350 kPa | 1018.2
25372 kPa | 1018.2
25391 kPa | 1018.3
25410 kPa | 1018.2
25428 kPa | 1018.2
25451 kPa | 1018.2
25470 kPa | 1018.3
25489 kPa | 1018.2
25511 kPa | 1018.1
25530 kPa | 1018.3
25553 kPa | 1018.2
25572 kPa | 1018.3

Reference: the NIST ThermoML archive (doi:10.1021/je060271a)
